Test results taken from ChEMBL document CHEMBL1135216, “New 2-(1-adamantylcarbonyl)pyridine and 1-acetyladamantane thiosemicarbazones-thiocarbonohydrazones: cell growth inhibitory, antiviral and antimicrobial activity evaluation” (Bioorg Med Chem Lett, 2002).
Converted amounts (≈) assume the structure as drawn.

Tests used:
Format in all cases: functional
E6SM [1] = assay: Tested for cytotoxic activity in human embryonic skin muscle fibroblast (E6SM); details: Muscle tissue
HEL [2] = assay: Tested for antiviral activity against thymidine kinase deficient Varicella zoster virus in human embryonic lung fibroblasts
Vero [3] = assay: Tested for antiviral activity against coxsackie B-4 virus in African green monkey kidney cell (Vero); details: Chlorocebus sabaeus
Vero [4] = assay: Tested for antiviral activity against parainfluenza virus in african green monkey kidney cell (Vero); details: Chlorocebus sabaeus
E6SM [5] = assay: Tested for antiviral activity against VSV-virus in human embryonic skin muscle fibroblasts; details: Muscle tissue
HeLa [6] = assay: Tested for antiviral activity against coxsackie-B4 virus in human epithelial cell line
E6SM [7] = assay: Tested for antiviral activity against thymidine kinase-deficient (TK-HSV-2G) virus in E6SM cell line(human embryonic skin-muscle fibroblasts)
Vero [8] = assay: Tested for antiviral activity against Sindbis virus in African green monkey kidney cell (Vero); details: Chlorocebus sabaeus
HEL [9] = assay: Tested for antiviral activity against thymidine kinase wild type Varicella zoster virus in human embryonic lung fibroblast
Vero [10] = assay: Tested for antiviral activity against Reo-1 virus in African green monkey kidney cell (Vero); details: Chlorocebus sabaeus
HEL [11] = assay: Tested for cytotoxic activity in human embryonic lung fibroblast (HEL)
HeLa [12] = assay: The compound was tested for antiviral activity against VSV-virus in human epithelial cells
E6SM [13] = assay: Tested for antiviral activity against vaccinia virus in human embryonic skin muscle fibroblast; details: Muscle tissue
Vero [14] = assay: Tested for cytotoxic activity in African green monkey kidney cells (Vero); details: Chlorocebus sabaeus
HeLa [15] = assay: Tested for cytotoxic activity in human epithelial cell line (HeLa)
Vero [16] = assay: Tested for antiviral activity against Punta toro virus in African green monkey kidney cell (Vero); details: Chlorocebus sabaeus
E6SM [17] = assay: The compound was tested for antiviral activity against thymidine kinase-deficient (TK-HSV-1)virus in E6SM cell line(human embryonic skin-muscle fibroblasts)
E6SM [18] = assay: Tested for antiviral activity against herpes simplex virus type 1(KOS) in E6SM cell line(human embryonic skin-muscle fibroblasts)
HEL [19] = assay: Tested for antiviral activity against human cytomegalovirus (AD-169) in human embryonic lung fibroblasts
MOLT-4 [20] = assay: Tested for the inhibitory concentration against cell growth of human leukemic cell line MOLT-4
K562 [21] = assay: Tested for the inhibitory concentration against cell growth of K562 chronic myeloid leukemia using MTT assay; details: Homo sapiens
HuT78 [22] = assay: Tested for the inhibitory concentration against cell growth of HuT78 T lymphoma using MTT assay; details: Homo sapiens
CCRF-CEM [23] = assay: Tested for the inhibitory concentration against cell growth of Tcell leukemic cell line CCRF-CEM using MTT assay; details: Homo sapiens
CCRF-CEM [24] = assay: Tested for the concentration required to reduce the viability of leukemia cells by 50% against cell growth of T cell leukemia cell line CCRF-CEM using MTT assay; details: Homo sapiens, read-out: LC50 (the source's name)
MOLT-4 [25] = assay: Tested for the concentration required to reduce the viability of leukemia cells by 50% against cell growth of T cell leukemia cell line MOLT-4 using MTT assay; details: Homo sapiens, read-out: LC50 (the source's name)
MOLT-4 [26] = assay: Tested for the inhibitory concentration against cell growth of Tcell leukemic cell line MOLT-4 using MTT assay; details: Homo sapiens
HL-60 [27] = assay: Tested for the inhibitory concentration against cell growth of HL60 acute myeloid leukemia using MTT assay; details: Homo sapiens
RPMI-8226 [28] = assay: Tested for the inhibitory concentration against cell growth of human leukemic cell line RPMI8226
RPMI-8226 [29] = assay: Tested for the inhibitory concentration against cell growth of […] multiple myeloma using MTT assay; details: Homo sapiens
K562 [30] = assay: Tested for the inhibitory concentration against cell growth of human leukemic cell line K562
HuT78 [31] = assay: Tested for the concentration required to reduce the viability of leukemia cells by 50% against cell growth of HuT78 T lymphoma using MTT assay; details: Homo sapiens, read-out: LC50 (the source's name)
RPMI-8226 [32] = assay: Tested for the concentration required to reduce the viability of leukemia cells by 50% against cell growth of RPMI8226 multiple myeloma using MTT assay; details: Homo sapiens, read-out: LC50 (the source's name)
HL-60 [33] = assay: Tested for the concentration required to reduce the viability of leukemia cells by 50% against cell growth of HL60 acute myeloid leukemia using MTT assay; details: Homo sapiens, read-out: LC50 (the source's name)
HL-60 [34] = assay: Tested for the inhibitory concentration against cell growth of human leukemic cell line HL60
CCRF-CEM [35] = assay: Tested for the inhibitory concentration against cell growth of human leukemic cell line CCRF-CEM
K562 [36] = assay: Tested for the concentration required to reduce the viability of leukemia cells by 50% against cell growth of K562 chronic myeloid leukemia using MTT assay; details: Homo sapiens, read-out: LC50 (the source's name)
HuT78 [37] = assay: Tested for the inhibitory concentration against cell growth of human leukemic cell line HuT78

Which MCC (E6SM [1]) does the source give for O=c1[nH]c(=O)n([C@H]2C[C@H](O)[C@@H](CO)O2)cc1/C=C/Br [BRIVUDINE] here?
The MCC was over 400 µg/mL.

And the MIC (HEL [2])?
Its MIC is over 50 µg/mL.

What about the MIC (Vero [3]) of the same compound?
Its MIC is over 400 µg/mL.

And the MIC (Vero [4])?
Its MIC is over 400 µg/mL.

And the MIC (E6SM [5])?
Its MIC is over 400 µg/mL.

What about the MIC (HeLa [6]) of the same compound?
Its MIC is over 400 µg/mL.

And the MIC (E6SM [7])?
The MIC was 80 µg/mL (≈ 240 µM).

What about the MIC (Vero [8]) of the same compound?
Its MIC is over 400 µg/mL.

What about the MIC (HEL [9]) of the same compound?
The MIC was 0.009 µg/mL (≈ 0.027 µM).

And the MIC (Vero [10])?
Its MIC is over 400 µg/mL.

What about the MCC (HEL [11]) of the same compound?
The MCC was over 50 µg/mL.

What about the MIC (HeLa [12]) of the same compound?
Its MIC is over 400 µg/mL.

And the MIC (E6SM [13])?
The MIC was 3.2 µg/mL (≈ 9.61 µM).

What about the MCC (Vero [14]) of the same compound?
The MCC was over 400 µg/mL.

And the MCC (HeLa [15])?
Its MCC is over 400 µg/mL.

And the MIC (Vero [16])?
The MIC was over 400 µg/mL.

And the MIC (E6SM [17])?
Its MIC is 400 µg/mL (≈ 1200 µM).

And the MIC (E6SM [18])?
Its MIC is 0.05 µg/mL (≈ 0.15 µM).

How did the MIC (HEL [19]) turn out when Nc1ccn(C[C@@H](CO)OCP(=O)(O)O)c(=O)n1.O.O [CIDOFOVIR] was run?
Its MIC is 0.27 µg/mL.

What about the MCC (HEL [11]) of the same compound?
The MCC was over 50 µg/mL.

What does the source list for Nc1nc2c(ncn2COC(CO)CO)c(=O)[nH]1 [GANCICLOVIR]?
MCC (E6SM [1]): > 100 µg/mL; MIC (E6SM [5]): 9.6 µg/mL (≈ 37.6 µM); MIC (E6SM [7]): 0.019 µg/mL (≈ 0.0744 µM); MIC (HEL [19]): 2 µg/mL (≈ 7.84 µM); MCC (HEL [11]): > 50 µg/mL; MIC (E6SM [13]): > 100 µg/mL; MIC (E6SM [17]): 9.6 µg/mL (≈ 37.6 µM); MIC (E6SM [18]): 0.0064 µg/mL (≈ 0.0251 µM)

Which results are given for CC[C@]1(O)C[C@@H]2CN(CCc3c([nH]c4ccccc34)[C@@](C(=O)OC)(c3cc4c(cc3OC)N(C)[C@H]3[C@@](O)(C(=O)OC)[C@H](OC(C)=O)[C@]5(CC)C=CCN6CC[C@]43[C@@H]65)C2)C1 [VINBLASTINE]?
GI50 (MOLT-4 [20]): < 250 pM; TGI (K562 [21]): < 250 pM; TGI (HuT78 [22]): < 250 pM; TGI (CCRF-CEM [23]): 1910 pM; CC50 (CCRF-CEM [24]): 5730 pM; CC50 (MOLT-4 [25]): < 250 pM; TGI (MOLT-4 [26]): < 250 pM; TGI (HL-60 [27]): 250 pM; GI50 (RPMI-8226 [28]): 3 pM; TGI (RPMI-8226 [29]): 800 pM; GI50 (K562 [30]): < 250 pM; CC50 (HuT78 [31]): 250 pM; CC50 (RPMI-8226 [32]): 3280 pM; CC50 (HL-60 [33]): 1510 pM; GI50 (HL-60 [34]): 36 pM; GI50 (CCRF-CEM [35]): 20 pM; CC50 (K562 [36]): < 250 pM; GI50 (HuT78 [37]): < 250 pM
